Data from patent US20060252807A1, “Novel ortho-terphenyl inhibitors of p38 kinase and methods of treating inflammatory disorders” (Kalypsys, Inc., priority 2005, published 2006).

Target: T1, active p38 alpha enzyme (Upstate Biotechnology) (Homo sapiens, UniProt Q16539)
T1 construct: purchased Upstate Biotechnology
Assay: p38α biochemical assay (ATP turnover, luminescent detection, Cambrex PKlight)
Conditions: p38α biochemical assay, Table 1 Biological Activity
Outline: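 In this kinase reaction, p38α used MapkapK2 as phosphorylation substrate at low ATP (1.4 uM final) over 2 hours at 30C, and activity was followed as ATP turnover by luminescence.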

T1 sequence (Q16539 whole entry): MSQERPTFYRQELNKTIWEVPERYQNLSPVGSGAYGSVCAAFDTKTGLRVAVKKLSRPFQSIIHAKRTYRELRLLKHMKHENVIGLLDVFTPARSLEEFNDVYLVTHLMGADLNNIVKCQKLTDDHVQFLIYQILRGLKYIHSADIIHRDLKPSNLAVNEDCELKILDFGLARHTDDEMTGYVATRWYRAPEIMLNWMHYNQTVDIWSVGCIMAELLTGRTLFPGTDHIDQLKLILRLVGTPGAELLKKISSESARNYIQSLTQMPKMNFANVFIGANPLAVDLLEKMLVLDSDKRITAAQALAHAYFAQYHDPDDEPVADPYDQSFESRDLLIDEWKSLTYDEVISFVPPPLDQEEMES

SMILES	IC50
Cc1cccc(C(=O)N2CCN(Cc3nc(-c4ccc(F)cc4)c(-c4nc(C(=O)NC(C)C)cs4)o3)CC2)c1C [Example 373]	> 1000 nM
CC(C)NC(=O)c1csc(-c2oc(CN3CCN(C(=O)c4cnc[nH]4)CC3)nc2-c2ccc(F)cc2)n1 [Example 342]	≤ 1000 nM
CC(C)NC(=O)c1csc(-c2c(-c3ccc(F)cc3)noc2CNC(=O)c2ccc3ncccc3c2)n1 [Example 672]	> 1000 nM
Cc1cc(C)c(C(=O)NCc2onc(-c3ccc(F)cc3)c2-c2nc(C(=O)NC(C)C)cs2)c(C)c1 [Example 650]	> 1000 nM
COc1ccc(Cl)cc1C(=O)N1CCN(Cc2nc(-c3ccc(F)cc3)c(-c3nc(C(=O)NC(C)C)cs3)o2)CC1 [Example 475]	> 1000 nM
CC(C)NC(=O)c1csc(-c2oc(CNC(=O)c3ccnc(Cl)c3)nc2-c2ccc(F)cc2)n1 [Example 154]	> 1000 nM
CC(C)Cc1ccc(C(C)C(=O)NCc2onc(-c3ccc(F)cc3)c2-c2nc(C(=O)NC(C)C)cs2)cc1 (stereo not shown) [Example 755]	> 1000 nM
CC(C)NC(=O)c1csc(-c2oc(CNC(=O)c3ccc([N+](=O)[O-])cc3Cl)nc2-c2ccc(F)cc2)n1 [Example 272]	≤ 1000 nM
CC(C)NC(=O)c1csc(-c2oc(CN3CCN(C(=O)Cc4ccccc4O)CC3)nc2-c2ccc(F)cc2)n1 [Example 380]	≤ 1000 nM
COc1ccc(C(=O)N2CCN(Cc3nc(-c4ccc(F)cc4)c(-c4nc(C(=O)NC(C)C)cs4)o3)CC2)cc1O [Example 426]	≤ 1000 nM
CC(C)NC(=O)c1csc(-c2oc(CN3CCN(C(=O)C4Cc5ccccc5CN4C(=O)OC(C)(C)C)CC3)nc2-c2ccc(F)cc2)n1 (stereo not shown) [Example 570]	> 1000 nM
COc1ccc2cc(C(C)C(=O)NCc3nc(-c4ccc(F)cc4)c(-c4nc(C(=O)NC(C)C)cs4)o3)ccc2c1 (stereo not shown) [Example 313]	≤ 1000 nM
CC(C)NC(=O)c1csc(-c2oc(CN3CCN(C(=O)C(C)(C)C)CC3)nc2-c2ccc(F)cc2)n1 [Example 340]	≤ 1000 nM

Same assay, conditions: p38α kinase; Table 1 Biological Activity

SMILES	IC50
O=C(NCCO)c1csc(-c2c(-c3ccc(F)cc3)n[nH]c2C2CCNCC2)n1 [Example 2036]	≤ 1000 nM
COc1cc(C(=O)N2CCC(c3[nH]nc(-c4ccc(F)cc4)c3-c3nc(C(=O)NC(C)C)cs3)CC2)c([N+](=O)[O-])cc1OC [Example 1021]	> 1000 nM
CC(C)CN(C)Cc1onc(-c2ccc(F)cc2)c1-c1nc(C(=O)NC(C)C)cs1 [Example 1517]	> 1000 nM
CC(C)NC(=O)c1csc(-c2c(-c3ccc(F)cc3)n[nH]c2C2CCN(C(=O)c3c(F)cccc3Cl)CC2)n1 [Example 914]	> 1000 nM
COc1ccc(C(=O)N2CCC(c3[nH]nc(-c4ccc(F)cc4)c3-c3nc(C(=O)NC(C)C)cs3)CC2)c(OC)c1 [Example 939]	> 1000 nM
Cc1cc(C(=O)N2CCC(c3[nH]nc(-c4ccc(F)cc4)c3-c3nc(C(=O)NC(C)C)cs3)CC2)n[nH]1 [Example 830]	> 1000 nM
Cc1nc(-c2ccc(F)cc2)c(-c2nc(C(=O)NCCC3CCCN3C)cs2)s1 (stereo not shown) [Example 1762]	> 1000 nM
CSc1ccccc1NCc1onc(-c2ccc(F)cc2)c1-c1nc(C(=O)NC(C)C)cs1 [Example 1666]	> 1000 nM
CCN(CC)CCN(Cc1ccccc1)Cc1nc(-c2ccc(F)cc2)c(-c2nc(C(=O)NC(C)C)cs2)o1 [Example 1281]	> 1000 nM
CC(C)NC(=O)c1csc(-c2c(-c3ccc(F)cc3)noc2CN(C)C(Cc2ccccc2)c2ccccc2)n1 (stereo not shown) [Example 1614]	> 1000 nM
CC(C)NC(=O)c1csc(-c2c(-c3ccc(F)cc3)n[nH]c2C2CCN(C(=O)c3ccccc3)CC2)n1 [Example 2170, 2-|5-(1-Benzoyl-piperidin-4-yl)-3-(4-fluoro-phenyl)-1H-pyrazol-4-yl|-thiazole-4-carboxylic acid isopropylamide]	> 1000 nM
CC(C)NC(=O)c1csc(-c2oc(CN3CCN(C)CC3)nc2-c2ccc(F)cc2)n1 [Example 1199]	> 1000 nM
